Test results reported in PMC7291858, “An Enhanced Variant Designed From DLP4 Cationic Peptide Against Staphylococcus aureus CVCC 546” (Frontiers in Microbiology, 2020).
Ends that are not written are not given here. Peptide text beside a SMILES is read from it.

Tests used:
S. aureus ATCC 43300 = type: cell-based, Staphylococcus aureus; settings: microtiter, serial 2-fold dilutions, 37°C, 16∼20 h, triplicate; – = no activity
In short: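 2-fold peptide dilution series, identical inoculum, 37°C, 16∼20 h. MIC = lowest conc. without visible growth. Vancomycin control; triplicate.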

[1] = system: Staphylococcus aureus CVCC 546; experiment: microbe, parasite or virus in culture; type: cell-based; settings: Table 1; – = no activity
Procedure: The minimal inhibitory concentration (MIC) was evaluated by a microtiter plate assay ([Wiegand et al., 2008]). Serial 2-fold dilutions of test peptides were placed into a 96-well plate containing identical bacterial inoculum and incubated at 37°C for 16∼20 h. Vancomycin was used as antibiotic control. The MIC value was defined as the lowest peptide concentration where no visible growth occurred. All tests were made in triplicate.

S. aureus CVCC 546 = experiment: Potassium ion (K+) leakage; type: cell-based, Staphylococcus aureus; settings: 1 × MIC, treated for 150 min, 0.9% saline, 10^8 CFU/mL, ICP, n = 3
Procedure: To further investigate the effects of peptides on membrane integrity, K^+ leakage determination was carried out as previously described ([Miao et al., 2016]). Briefly, S. aureus CVCC 546 cells were centrifuged, washed, and resuspended in 0.9% sterile saline. The cell suspension (10^8 CFU/mL) was treated with peptides at 1 × MIC. Cells untreated and treated with DLP4 or nisin were used as blank and positive controls. At time intervals of 30, 60, 90, 120, and 150 min, the suspensions were centrifuged at 12000 rpm for 5 min. The supernatants were then subjected to measurement by Agilent inductively coupled plasma optical emission (ICP-OES).

Molecule	A1 (MIC against S. aureus ATCC 43300) (S. aureus ATCC 43300)	MIC [1]	level of released K+ (S. aureus CVCC 546)
CC[C@H](C)[C@@H]1NC(=O)[C@@H]2CSSC[C@@H](C(=O)N[C@@H](CCCNC(=N)N)C(=O)N[C@@H](CCCCN)C(=O)O)NC(=O)[C@H](CC(N)=O)NC(=O)[C@@H]3CSSC[C@H](NC(=O)[C@H](C)NC(=O)[C@H](C)NC(=O)[C@H](Cc4c[nH]cn4)NC(=O)CNC(=O)[C@H](C(C)C)NC(=O)[C@H](CCCCN)NC(=O)[C@H](Cc4ccccc4)NC(=O)[C@@H]4CCCN4C(=O)[C@H](CO)NC(=O)[C@H](CC(C)C)NC(=O)[C@H](CC(C)C)NC(=O)[C@H](CC(=O)O)NC(=O)[C@@H](NC(=O)[C@@H](NC(=O)[C@H](C)N)[C@@H](C)O)CSSC[C@H](NC(=O)[C@H](Cc4c[nH]c5ccccc45)NC(=O)CNC(=O)CNC(=O)[C@H](CCCNC(=N)N)NC(=O)[C@H](CCCCN)NC(=O)CNC(=O)[C@H](CCCNC(=N)N)NC(=O)[C@H](C)NC1=O)C(=O)N[C@@H](CC(=O)O)C(=O)N[C@@H](CCCCN)C(=O)N[C@@H](CCCNC(=N)N)C(=O)N[C@@H](C)C(=O)N[C@@H](C(C)C)C(=O)N3)C(=O)N[C@@H](C)C(=O)N[C@@H](C(C)C)C(=O)N[C@@H](Cc1c[nH]cn1)C(=O)N2 [ID28] (HELM PEPTIDE1{A.T.C.D.L.L.S.P.F.K.V.G.H.A.A.C.A.V.H.C.I.A.R.G.K.R.G.G.W.C.D.K.R.A.V.C.N.C.R.K}$PEPTIDE1,PEPTIDE1,3:R3-30:R3|PEPTIDE1,PEPTIDE1,16:R3-36:R3|PEPTIDE1,PEPTIDE1,20:R3-38:R3$$$V2.0; N-terminus and C-terminus assumed; bridges inferred)	8 µg/mL	16	–
CC(C)C[C@@H]1NC(=O)[C@@H]2CSSC[C@@H](C(=O)N[C@@H](CCCNC(=N)N)C(=O)N[C@@H](CCCCN)C(=O)O)NC(=O)[C@H](CC(N)=O)NC(=O)[C@@H]3CSSC[C@H](NC(=O)[C@H](C)NC(=O)[C@H](C)NC(=O)[C@H](Cc4c[nH]cn4)NC(=O)CNC(=O)[C@H](C(C)C)NC(=O)[C@H](CCCCN)NC(=O)[C@H](Cc4ccccc4)NC(=O)[C@@H]4CCCN4C(=O)[C@H](CO)NC(=O)[C@H](CC(C)C)NC(=O)[C@H](CC(C)C)NC(=O)[C@H](CC(=O)O)NC(=O)[C@@H](NC(=O)[C@@H](NC(=O)[C@H](C)N)[C@@H](C)O)CSSC[C@H](NC(=O)[C@H](Cc4c[nH]c5ccccc45)NC(=O)CNC(=O)CNC(=O)[C@H](CCCNC(=N)N)NC(=O)[C@H](CCCCN)NC(=O)CNC(=O)[C@H](CCCNC(=N)N)NC(=O)[C@H](C)NC1=O)C(=O)N[C@@H](CC(=O)O)C(=O)N[C@@H](CCCCN)C(=O)N[C@@H](CCCNC(=N)N)C(=O)N[C@@H](C)C(=O)N[C@@H](C(C)C)C(=O)N3)C(=O)N[C@@H](C)C(=O)N[C@@H](C)C(=O)N[C@@H](Cc1c[nH]cn1)C(=O)N2 [ID29] (HELM PEPTIDE1{A.T.C.D.L.L.S.P.F.K.V.G.H.A.A.C.A.A.H.C.L.A.R.G.K.R.G.G.W.C.D.K.R.A.V.C.N.C.R.K}$PEPTIDE1,PEPTIDE1,3:R3-30:R3|PEPTIDE1,PEPTIDE1,16:R3-36:R3|PEPTIDE1,PEPTIDE1,20:R3-38:R3$$$V2.0; N-terminus and C-terminus assumed; bridges inferred)	64 µg/mL	128	–
CC[C@H](C)[C@@H]1NC(=O)[C@H](C)NC(=O)[C@H](CCCNC(=N)N)NC(=O)[C@H](CCCCN)NC(=O)[C@H](CC(=O)O)NC(=O)[C@@H]2CSSC[C@H](NC(=O)[C@@H](NC(=O)[C@H](C)N)[C@@H](C)O)C(=O)N[C@@H](CC(=O)O)C(=O)N[C@@H](CC(C)C)C(=O)N[C@@H](CC(C)C)C(=O)N[C@@H](CO)C(=O)N3CCC[C@H]3C(=O)N[C@@H](Cc3ccccc3)C(=O)N[C@@H](CCCCN)C(=O)N[C@@H](C(C)C)C(=O)NCC(=O)N[C@@H](Cc3c[nH]cn3)C(=O)N[C@@H](C)C(=O)N[C@@H](C)C(=O)N[C@H]3CSSC[C@H](NC1=O)C(=O)N[C@@H](CC(N)=O)C(=O)N[C@H](C(=O)N[C@@H](CCCNC(=N)N)C(=O)N[C@@H](CCCCN)C(=O)O)CSSC[C@H](NC(=O)[C@H](Cc1c[nH]cn1)NC(=O)[C@H](C)NC(=O)[C@H](C)NC3=O)C(=O)N[C@@H]([C@@H](C)CC)C(=O)N[C@@H](C)C(=O)N[C@@H](CCCNC(=N)N)C(=O)NCC(=O)N[C@@H](CCCCN)C(=O)N[C@@H](CCCNC(=N)N)C(=O)NCC(=O)NCC(=O)N[C@@H](Cc1c[nH]c3ccccc13)C(=O)N2 [ID30] (HELM PEPTIDE1{A.T.C.D.L.L.S.P.F.K.V.G.H.A.A.C.A.A.H.C.I.A.R.G.K.R.G.G.W.C.D.K.R.A.I.C.N.C.R.K}$PEPTIDE1,PEPTIDE1,3:R3-30:R3|PEPTIDE1,PEPTIDE1,16:R3-36:R3|PEPTIDE1,PEPTIDE1,20:R3-38:R3$$$V2.0; N-terminus and C-terminus assumed; bridges inferred)	16 µg/mL	32	–
nisin (ITSISLCTPGCKTGALMGCNMKTATCHCSIHVSK; also: lantibiotic: thioether rings and dehydro residues not placed; UniProt P13068 24-57, looked up) [positive control in K+ leakage assay]	–	–	1.03 mg/L
